Reference: patent US10533018B2, “Antimicrobial prochelators to target drug-resistant bacteria and methods of making and using the same” (Duke University, priority 2015, dated 2020)
Read-outs that look alike come from different tables or passages of the source.

Columns and labels:
[1] = Stability in aqueous media / PBS (UV-Vis, LC-MS); assay type: physicochemical
Experimental: A commercially available β-lactamase (type III from Enterobacter cloacae, Sigma Aldrich) was used to verify the specificity of compound DB4-51 activation. Aqueous samples of the prochelator with and without β-lactamase were incubated at 25° C. and LC-MS was performed periodically to monitor the conversion. Percent conversion was calculated based upon the area under the LC-MS peak that corresponds to the mass of DB4-51.
The results from the growth inhibition assays support our hypothesis that β-lactamase-producing bacteria activate DB4-51 to release PT as the active agent. […] The UV-Vis absorbance spectra of DB4-51 and PT in PBS buffer are clearly distinct, with DB4-51 showing a shoulder at 264 nm and a broad absorption peak centered at 315 nm.
In order to monitor the stability of DB4-162, the absorbance spectrum was recorded in PBS. The sample was incubated at 37° C. and the absorbance spectrum was recorded periodically. […] Additionally, the concentration of the prochelator in solution was monitored by LC-MS. A calibration curve was prepared after a serial dilution of DB4-162 was analyzed on the instrument and the area under the broad absorbance band at 260-300 nm that correlates with the prochelator was integrated. This curve was then used to calculate the concentration of DB4-162 present in solution after incubating in PBS at 37° C. The sample was analyzed by LC-MS after 0, 24, and 72 hours. After incubating in PBS for 24 hours more than 85% of the original signal was still observed by LC-MS. However, after 72 hours, it was calculated that approximately 60% of DB4-162 was still present in solution. Given the lack of degradation products in the mass spectrum and the absence of any new absorbance peaks it is possible that aggregation of the prochelator over time is the cause of the observed loss of signal. Together, the UV-Vis and LC-MS data support the overall stability of DB4-162 in aqueous conditions. By comparison, the half-life of most β-lactam antibiotics in vivo is a few hours.[44, 45]
The reaction products of the prochelator DB4-162 were analyzed by LC-MS. A sample of 100 μM DB4-162 and 10 μM Rofecoxib (internal standard) in PBS was divided into two LC-MS vials and to one was added 0.5 units/mL β-lactamase. After incubating at room temperature, the samples were run on the LC-MS. Integrating the area under the peak of the UV-trace gives a measure of the concentration of that species. By serial dilution, a calibration curve was constructed in order to quantify the concentration of DB4-162 present in solution. The mass spectrum confirms that the prochelator, with a molecular weight of 477.1 g/mol, elutes at 14.5 minutes (FIG. 10).

mammalian cells = assay: LC-MS of spent mammalian cell culture medium; assay type: in vitro ADME; details: spent cell culture medium of cytotoxicity assay; after 4 hours
Experimental: Suspecting that the cytotoxicity apparent at high concentrations of DB4-51 in the mammalian cells may be due to PT released by non-specific hydrolysis of DB4-51, we analyzed the spent cell culture medium used for the cytotoxicity assay by LC-MS and found 50-60% loss of detectable, intact prochelator compared to the non-incubated controls after 4 hours.

[2] = Zinpyr-1 fluorescence assay; assay type: physicochemical
Experimental: Lanes three and four contain 100 μM DB4-51 and 0.5 units/ml β-lactamase respectively and confirm these molecules are innocent in the fluorescence of zinpyr-1. Lane five contains 100 μM DB4-51 and 0.5 units/ml β-lactamase.

+Bla K-12 E. coli = assay type: cell-based, Escherichia coli; details: 1 h, ICP-MS; for increase in cell-associated copper over the CuCl2 control: 10 μM compound + 10 μM supplemental CuCl2; for changes in cell-associated copper, iron, or zinc vs untreated control: 2.5-10 μM compound alone
Experimental: PT is recognized as an ionophore that shuttles metals across cell membranes and thereby disrupts cellular metal homeostasis. […] To test this hypothesis, inductively-coupled plasma mass spectrometry (ICP-MS) was used to measure the concentration of cell-associated copper, iron, and zinc for +Bla K-12 E. coli grown under a variety of conditions. Untreated E. coli grown in LB media were compared to those incubated for one hour in LB containing 0, 2.5, 5, or 10 μM DB4-51 or PT with and without 10 μM supplemental CuCl2. The concentrations of cell-associated metals in +Bla E. coli grown in these conditions are reported as a ratio against bacterial growth as measured by the OD600 reading at the time of sampling.
FIG. 6: Cellular metal concentrations of +Bla K-12 E. coli. Cultures of +Bla K-12 E. coli were incubated for 1 h in LB media, LB containing no treatment, 10 μM added CuCl2, and DB4-51 (top) or PT (bottom) at indicated concentrations in the absence or presence of 10 μM CuCl2. Metal contents of cell pellets were analysed via ICP-MS and reported as a function of OD600.

E. coli = assay type: cell-based; details: checkerboard, LB, OD600
Text: Further evidence for the influence of bioavailable copper on the IC50 of DB4-51 was obtained by using a checkerboard assay. […] Serial dilutions of DB4-51 in LB were arrayed against dilutions of chelator (BCS and EDTA). The antagonism exists between our prochelator, DB4-51, and the strong, extracellular chelators BCS and EDTA. […] However, at lower concentrations, EDTA works antagonistically with DB4-51 by restoring bacterial growth. This trend further underscores the influence that copper and potentially other metals have on the growth inhibitory activity of DB4-51.

7 bacterial strains = assay: Broth microdilution, summary across strains tested; assay type: cell-based
Experimental: Cultures were incubated on LB (Lennox, Sigma) agar at 37° C. in ambient atmospheric composition. Before beginning an experiment, a single bacterial colony grown on LB agar was resuspended in 2 mL LB broth and incubated overnight to form a turbid cell suspension. The overnight culture was diluted 1:100 in LB and used immediately as the working culture. To assess the antibacterial activity of compounds, the working bacterial culture was aliquoted in a clear, flat-bottomed, 96-well polystyrene plate (Costar) and the compound of interest was added in 2-fold serial dilution from 500 to 1 μM. Plates were covered with a breathable sealing film (Aeroseal, Genesee Scientific) and incubated at 37° C. in ambient atmospheric composition with shaking at 200 rpm. Optical density at 600 nm was recorded after 4 h and 20 h for each well using a standard OD600 protocol with LB serving as the blank. The resulting dose-response curves were fit to a nonlinear regression in GraphPad Prism Version 6 to calculate the IC50 of DB4-51 in each strain.

| Compound | stability by LC-MS ([1]; PBS, 72 hours at 37° C.) | absorbance spectrum in PBS ([1]; PBS, after 19 hours) | Percent conversion in the absence of the enzyme ([1]; aqueous, 25° C., after 48 hours) [%] | loss of detectable, intact prochelator vs non-incubated controls (mammalian cells) | decrease of Zn-zinpyr-1 fluorescence ([2]; 100 μM + 0.5 units/ml β-lactamase) | Zn-zinpyr-1 fluorescence on addition of compound ([2]; 400 equivalents (100 μM), no β-lactamase) | increase in cell-associated copper over the CuCl2 control (+Bla K-12 E. coli) | changes in cell-associated copper, iron, or zinc vs untreated control (+Bla K-12 E. coli) | interaction with extracellular chelators BCS and EDTA (E. coli) | IC50 of DB4-51 relative to that of PT (7 bacterial strains; most ampicillin-resistant strains tested) | IC50 (7 bacterial strains; 500 μM BCS, depending on strain, read-out: IC50 across strains under Cu limiting conditions) [µM] | IC50 (7 bacterial strains; LB broth, span over 7 strains, read-out: IC50 across all strains tested) [µM] | stability without the enzyme (LC-MS) [1] | original signal still observed by LC-MS ([1]; PBS, 37° C., 24 hours) | prochelator still present in solution (LC-MS) ([1]; PBS, 37° C., 72 hours) | absorbance spectrum change ([1]; PBS, 37° C., after 72 hours) |
| --- | --- | --- | --- | --- | --- | --- | --- | --- | --- | --- | --- | --- | --- | --- | --- | --- |
| O=C(Cc1ccccc1)N[C@@H]1C(=O)N2C(C(=O)O)=C(CSc3cccc[n+]3[O-])CS[C@H]12 [DB4-51, 2-((((6R,7R)-2-carboxy-8-oxo-7-(2-phenylacetamido)-5-thia-1-azabicyclo[4.2.0]oct-2-en-3-yl)methyl)thio)pyridine 1-oxide] | no signs of degradation | remains unchanged | ≤ 5 | 50-60% | more than 50% | unaffected | slight but statistically insignificant increase | no significant changes | antagonism | 2-5 fold | – | – | – | – | – | – |
| [O-][n+]1ccccc1S [PT, 2-mercaptopyridine N-oxide] | – | – | – | – | – | – | 30 fold | no significant changes | – | – | 6 to 20 | 2 to 11 | – | – | – | – |
| Cc1csc(=S)n1OCC1=C(C(=O)O)N2C(=O)[C@@H](NC(=O)Cc3ccccc3)[C@H]2SC1 [DB4-162, (6R,7R)-3-(((4-methyl-2-thioxothiazol-3(2H)-yl)oxy)methyl)-8-oxo-7-(2-phenylacetamido)-5-thia-1-azabicyclo[4.2.0]oct-2-ene-2-carboxylic acid] | – | – | – | – | – | – | – | – | – | – | – | – | appears stable | more than 85% | approximately 60% | only very small spectral changes |
